Assay results taken from patent US20030157715A1, “Modulation of chromosome function by chromatin remodeling agents” (priority 2000, published 2003).

Experiments:
[1] = test system: Ubx^1/+ flies; assay: P31 fed to developing Ubx^1/+ flies; type: in vivo, Drosophila melanogaster
From the text: P31 enhances haltere-to-wing transformation in heterozygous bw^D/bw; Ubx^1/+ flies: The GAGA factor is know to bind to the promoter of Ubx and to stimulate its transcription in vitro (Biggin and Tjian, 1988) The Trl locus also genetically interacts with Ubx, since Trl^13C dominantly enhances the segmental transformation observed in Ubx heterozygotes. […] We asked, does P31 also chemically mimic the genetic interaction of Ubx and Trl^13C? To address this issue, we fed P31 to two genotypes, +/+; Ubx/+ and bw^D/bw^D; Ubx^1/+. The latter genotype was obtained by crossing bw^D/bw^D; st/st females and bw^D/bw^D Ubx^1/Tm3, sb males.
The lethality of the progenies was calculated by counting the dead bodies and the total empty pupal shells. The A6 to A5 transformation was detected by bristles that form on abdominal segment A6 on males. All male adult flies obtained (˜50) were scored. Sex combs and halteres were individually inspected and photographed under the microscope (Axiophot, Zeiss) after dissecting at least 30 individuals and incubating them into 30 μl of 0.6 g/ml gum arabic; 4 g/ml chlorohydrate; 35% glycerol under a 24×24 mm coverslip as described (Ashburner, 1989). Since raising double heterozygous flies (Ubx^1/+; bw^D/+) led to lethality, we morphologically dissected eight late stage pupae after carefully removing the pupal envelope.

[2] = test system: GAGAA repeats (satellite V / bw^D repeats); assay: DNase I footprinting on GAGAA repeats (GAF31 and Brown I probes); type: binding, Drosophila melanogaster
From the text: FIG. 3 Binding specificity of P31 and GAGA factor Panel A: DNAse I footprinting experiment with P31 and affinity cleavage with P31E are shown on GAF31 and the Brown I probes. The GAF31 and Brown I probes contains a (AAGAG)2 motif and GAGA factor (GAF) binding site from the Ubx promoter (Biggin et al., 1988). […] The Brown I oligo (a tandem repeat) includes an (AAGAG)s binding site and a degenerate P31 binding site (AACAC)2 as indicated. P31 concentrations used (nM) are indicated. Lanes labeled P31E (top) are affinity cleavage reactions with 1 nM of P31E on either probe. Binding orientations of P31E on these probes are indicated by arrowheads on the brackets pointing towards the N-terminus of the molecule. The letter G refers the G nucleotide cleavage reaction. Panel B: DNAse I footprinting experiment with purified GAGA factor (GAF) on the GAF31 probe. Note that GAF binds both the (AAGAG)2 motif and the binding site from the Ubx promoter.
A polyamide that targets the abundant satellite V composed of GAGAA repeats (Lohe et al., 1993) was synthesized. Designing molecules that would bind to this repeat motif represented a challenge since with current knowledge, targeting of sequences containing 5′-GNG-3′ or 5′-GA-3′ with drugs composed of pyrrole and imidazole is difficult. However, successful targeting to sequences containing 5′-GTG-3′ was previously achieved using an Im-β-Im motif where β-alanine replaces the function of pyrrole (Turner et al., 1998). Since β-alanine, like pyrroles, is degenerate for […] and T^•A base pairs, we designed a compound based on these observations, to recognize a sequence composed of two tandem GAGAA repeats by systematic placement of -alanine at the N-terminal neighbor of imidazole. The binding affinity and specificity of this compound, termed P31 (=Im-β-Im-Py-β-Im-β-Im-β-Dp), were evaluated by DNAse I footprinting. For this purpose, two different probes were examined, both containing GAGAA repeats. […] The apparent binding constant of P31 for this sequence was estimated at 0.25 nM. […]

CN(C)CCCNC(=O)CCNC(=O)c1nc(NC(=O)CCNC(=O)c2nc(NC(=O)CCNC(=O)c3cc(NC(=O)c4nc(NC(=O)CCNC(=O)c5nccn5C)cn4C)cn3C)cn2C)cn1C [Compound P31, Im-β-Im-Py-β-Im-β-Im-β-Dp]
A6 to A5 ([1]; fly stock Ubx^1/+): 0%
Lethality ([1]; fly stock Ubx^1/+): 10%
Sex comb (mean) ([1]; fly stock Ubx^1/+): 10.3
Sex comb, range of teeth ([1]; fly stock Ubx^1/+): 8-12
alteration of phenotype (in words) ([1]; progeny of Ubx^1/+ flies): no altered phenotype
concentration at which bw^D repeats are protected ([2]; 2 consecutive bw^D repeats (GAGAAGAGAA)): 0.1 nM
Kd ([2]; DNase I footprinting, read-out: apparent binding constant for two GAGAA repeats): 0.25 nM
affinity for target binding site (in words) ([2]; two GAGAA repeats): subnanomolar affinity
